The subject of experiment [1] is infantile female rabbits. Briefly: Clauberg test, progestational activity (McPhail values) after oral administration to infantile female rabbits. Format: in vivo. How it is done:
For the progestational effect, the McPhail values were determined in the usual Clauberg test after oral administration to infantile female rabbits. The minimum amount required to achieve a positive effect is expressed by the McPhail value of 1.5.

In experiment [2] the test system is seminal vesicles. Briefly: antiandrogen test, seminal vesicle weight in testosterone propionate-treated male castrated rats. It counts as in vivo. Conditions: daily dosage s.c. over 7 days, 0.1 mg testosterone propionate daily s.c., halves organ weight caused by testosterone propionate. How it is done:
The antiandrogenic activity was tested on male castrated rats weighing about 100 g. Starting with 1 week after castration, the test compound was administered in staggered doses subcutaneously over a period of 7 days. Over the same time period, the animals received daily 0.1 mg. of testosterone propionate subcutaneously. On the eighth day, the animals were sacrificed, and the weights of the seminal vesicles were determined. As the ED50, the daily dosage was determined which reduced the organ weight caused solely by testosterone propionate to one-half.

The mark [3] stands for this setting: oral, dose 0.001 mg, infantile female rabbits.
Where [4] appears, read: oral, dose 0.003 mg, infantile female rabbits.
Setting [5] is: oral, dose 0.01 mg, infantile female rabbits.

Molecules are shown by their SMILES.

On to `CC(=O)O[C@]1(C(C)=O)CC[C@H]2[C@@H]3C=C(Cl)C4=CC(=O)[C@@H]5C[C@@H]5[C@]4(C)[C@H]3[C@@H](F)C[C@@]21C` [A, 17-acetoxy-6-chloro-11β-fluoro-1α,2α -methylene-4,6-pregnadiene-3,20-dione], for which the “Clauberg test, comparison with compound B” value in experiment [1] (compared with the conventional compound B) is given as “superior”. Further, the “Progestational Activity, McPhail” value in experiment [1] (setting [3]) was 1.1; in experiment [1] (setting [4]) it was 2.0; in experiment [1] (setting [5]), 3.4. Moreover, the “Antiandrogenic Activity ED50 Seminal Vesicle” value in experiment [2] is 0.3 to 1.0 mg.
As to `CC(=O)O[C@]1(C(C)=O)CC[C@H]2[C@@H]3C=C(Cl)C4=CC(=O)[C@@H]5C[C@@H]5[C@]4(C)[C@H]3CC[C@@]21C` [B, 17-acetoxy-6-chloro-1α,2α -methylene-4,6-pregnadiene-3,20-dione, reference compound], the “Progestational Activity, McPhail” value in experiment [1] (setting [3]) is listed as 1.0; in experiment [1] (setting [4]) it was 1.5; in experiment [1] (setting [5]) it was 2.9. Moreover, the “threshold dose (McPhail 1.5) for the progestational activity” value in experiment [1] (oral, infantile female rabbits, minimum amount for positive effect) turned out to be 0.003 mg. In addition, the “Antiandrogenic Activity ED50 Seminal Vesicle” value in experiment [2] was 0.1 to 0.3 mg.

For the origin of these results see US4073900A, “11β-FLUOROPREGNENES” (Schering Aktiengesellschaft, priority 1975, dated 1978).
